According to patent US20200383946A1, “LIPOIC ACID FORMULATIONS” (Aciont Inc., priority 2019, published 2020):

Test: physchem
Format: physicochemical
Conditions: aqueous buffer, solubility of DHLA
Text: Dihydrolipoic acid (DHLA) was obtained from Sigma (Cat #T8260).
Again, the PBS helped maintain the pH within a suitable pH range.

With `O=C(O)CCCC[C@@H](S)CCS` (racemic) [DHLA, Dihydrolipoic acid] the solubility was greater than 76 mg/mL.
